# Assay: in vitro
# Conditions: human, hela cells, % viability
row,SMILES,"viability at 28.5 h, 10 µM [%]"
1,Cc1nc(NC(=O)Cn2c3c(c4ccccc42)CCC3)nn1C [CBK281377],85.5
2,CC(C(=O)N1c2ccccc2Sc2ccccc21)N1C(=O)c2ccccc2C1=O (stereo not drawn) [CBK018045],105
3,CCc1nn(CC(=O)N2CCCC2)c(=O)c2cc3sccc3n12 [CBK284028],85.8
4,O=C(Nn1cnnc1)c1cccc(C(=O)Nn2cnnc2)c1 [CBK091759],99.4
5,C=CCN(CC=C)CCOc1c(C)cc(C)cc1Br [CBK266070G],110
6,CC1Cc2ccccc2N1C(=O)Cn1c(=O)n(C)c2ncccc21 (stereo not drawn) [CBK283793],90.7
7,NNC(=O)CSc1nnc2ccc(C(F)(F)F)cn12 [CBK006897],90.3
8,COc1ncc(-c2cncc(N[C@H](C)c3ccccc3)n2)c(OC)n1 [CBK065267],92.4
9,CCCN(C)Cc1ccc(-c2nnn(CC(=O)NCc3ccc(CC)cc3)n2)cc1NC(C)=O [CBK164703],105
10,O=C1CCc2cc(S(=O)(=O)Nc3ccc(OCc4ccccc4)cc3)ccc2N1 [CBK286365],90
11,Cc1cccnc1C(NC(=O)C1CCN(S(=O)(=O)c2cccs2)CC1)c1cccs1 (stereo not drawn) [CBK060147],111
12,O=C(NCC1COc2ccccc2O1)N1CCN(c2cc(C(F)(F)F)ccn2)CC1 (stereo not drawn) [CBK156432],88.2
13,CC(=O)Nc1ccc(-c2cccc(COC3CCN(C(=O)Cc4ccc(Cl)c(Cl)c4)CC3)c2)cc1 [CBK149487],109
14,Cc1nc(N2CCOCC2)[nH]c(=O)c1CCC(=O)Nc1ccccc1F [CBK305003],97.7
15,CN1CCN(c2c(C(=O)O)cc([N+](=O)[O-])cc2[N+](=O)[O-])CC1 [CBK261519],100
16,NC(=O)CSc1nnc(COc2cccc(Cl)c2)n1-c1ccccc1 [CBK267685],88.9
17,O=C(c1ccc2[nH]ccc2c1)N1CCN(c2ncccn2)CC1 [CBK144500],87
18,CCCc1c(C(=O)N2CCN(c3cnccn3)CC2)cnn1C [CBK305962],99
19,CN1C[C@@H](NC(=O)NCc2ccccc2)C[C@H]1c1nc(-c2cncnc2)no1 [CBK288878],108
20,Cc1ccc2nc(-c3ccc(-c4ccc(C(C)C)cc4)o3)cc(C(=O)O)c2c1 [CBK300083],96.7
21,CC(C)(c1ccc(Oc2cccc(N)c2)cc1)c1ccc(Oc2cccc(N)c2)cc1 [CBK260958],109
22,CC(C)n1ncc2c1NC(=O)CC2c1ccc2c(c1)n(C)c(=O)n2C (stereo not drawn) [CBK287926],108

row,SMILES,"viability at 28.5 h, 10 µM [%]"
1,CN(C)CCCNC(=S)Nc1ccc(Cl)cc1Cl [CBK264183],92.5
2,Clc1ccc(-c2cn(-c3cnc4ccccc4c3)nn2)cc1 [CBK113044],94.8
3,OCc1ccccc1-c1cn2ccnc2c(Nc2ccc(N3CCOCC3)cc2)n1 [CBK037956],85.8
4,CCOC(=O)C(=O)N(C)c1c(CC)nc2c(OCc3ccccc3)cccn12 [CBK147879],86.8
5,CC(=O)Oc1ccccc1C(=O)Oc1ccc2c(c1)c(C(C)=O)c(C)n2-c1ccccc1 [CBK263175],89.2
6,C=C(C)CN1CCN(C(=O)C(CC)Oc2ccccc2F)CC1 (stereo not drawn) [CBK282935],90.1
7,O=C(c1nccs1)C1CCN(C(=O)CC2CCCC2)CC1 [CBK284207],107
8,CCCCNC(=O)c1ccc2nc(CC)c(N(C)CCC(C)C)n2c1 [CBK145477],100
9,CS(=O)(=O)Nc1cccc(C2=NN(S(=O)(=O)c3ccc(Cl)cc3)C(c3ccccc3F)C2)c1 (stereo not drawn) [CBK268762],114
10,NS(=O)(=O)c1ccc(Cl)c(Cl)c1 [CBK015652],118
11,CN(CCOC(=O)c1cccnc1)C(C)(C)C [CBK027543C],88.8
12,Nc1ncc(-c2cccc(OC(F)(F)F)c2)nc1-c1ccc(C(=O)N2CCOCC2)cc1 [CBK064091],96.8
13,COc1cc(CN2CCNC(=O)C2CC(=O)O)cc(OC)c1 (stereo not drawn) [CBK269752],105
14,O=C(C1CCC1)N1C2CCC1Cn1c(nc3ccccc3c1=O)C2 (stereo not drawn) [CBK284453],91.5
15,Cc1ccc(-n2ncc3c(=O)n(CC(=O)Nc4ccccc4)cnc32)cc1C [CBK287539],87.3
16,O=C(CN1C(=O)c2ccccc2S1(=O)=O)Nc1ccccc1-c1ccccc1 [CBK266390],102
17,Cc1cn([C@H]2C[C@@H](O)[C@@H](CO)O2)c(N)nc1=O [CBK201327],100
18,COc1ccccc1NC(=O)c1c(NC(=O)Cc2ccccc2)sc2c1CCC(C(C)(C)C)C2 (stereo not drawn) [CBK264102],94.1
19,O=C(O)c1cc2c(s1)CN(C1CCCCC1)C2 [CBK286885],96.2
20,Cc1cc(-c2nc3ncccc3o2)ccc1NC(=S)NC(=O)c1cc2ccccc2o1 [CBK268922],83.1
21,CC(C)(C)c1ccc(-c2nc3ncccc3cc2O)cc1 [CBK073703],74.5
22,NC(=O)c1cccc(CN2CCOC3(CCN(C(=O)OCc4ccccc4)CC3)C2)c1 [CBK161100T],90.4

row,SMILES,"viability at 28.5 h, 10 µM [%]"
1,Clc1ccc(C2N(Cc3ccccc3)CCC3CCCCN32)cc1Cl (stereo not drawn) [CBK028769],86.6
2,Cc1nc(Cc2nc(-c3ccc4c(c3)CCCN4S(C)(=O)=O)cs2)cs1 [CBK304542],97.3
3,C=CCn1c2cc(C)sc2c2cnn(CC(=O)NC(C)C)c(=O)c21 [CBK284150],89
4,CS(=O)(=O)Nc1ccc2c(O)c(C(=O)NCc3ccc(Cl)cc3)c(=O)[nH]c2c1 [CBK017559],88.9
5,COc1ccc(-c2ccc(OC)cc2C(=O)Nc2ccc(Cn3cncn3)cc2)cc1 [CBK285588],109
6,CCNC(=O)Nc1ccc(-c2ccc(SC)cc2)c2ccccc12 [CBK083723],90.4
7,COc1ccc([C@@]23CCC(N)C[C@@H]2N(C)CC3)cc1OC (stereo partly drawn) [CBK003576],114
8,Cc1cccc(C(=O)NC(CC(C)C)c2nnc3n2CCNCC3)c1O (stereo not drawn) [CBK307191],99.6
9,CSCC(=O)N[C@H]1CCN2C(=O)N(c3cccc(C(C)=O)c3)C(=O)[C@@H]2C1 [CBK289546],90.6
10,CCOc1cc(OCC)cc(C(=O)N2CCC3(CC2)CC(=O)c2ccc(OCC)cc2O3)c1 [CBK168014],98.8
11,CCNC(=O)N1C(CC(=O)Nc2cccc(OC)c2)C(=O)NC2CCCCC21 (stereo not drawn) [CBK269848],90.6
12,Cc1cccc(-c2ncc(C(=O)NCc3csc4ccc(Cl)cc34)cc2-c2ccncc2)c1 [CBK036770],89.6
13,CC(=O)N1CCc2cc(NC(=O)C3CC4C=CC3C43CC3)ccc21 (stereo not drawn) [CBK281472],79.8
14,COc1cc2ncc(C(=O)NCc3cccs3)c(O)c2cc1OC [CBK159998],91.9
15,Cc1cc(NC(=O)CN2CCC(CNc3ccccn3)C2)on1 (stereo not drawn) [CBK305760],89.2
16,O=c1[nH]nc2c(SCc3ccccc3)nccn12 [CBK288440],90.5
17,N#Cc1ccccc1N1CCN(c2cncc(-c3cccc4cccnc34)n2)CC1 [CBK037366],102
18,O=C(CCc1cn2ccccc2n1)NCc1cc2n(n1)CCCNC2 [CBK307157],88.8
19,Cc1nc2ccc(C(=O)NCCN3CCc4ccccc43)cc2[nH]1 [CBK283280],94.2
20,CC[C@H]1CN(C(=O)C2CC2)CC[C@H]1CC(=O)N(C)CC#N [CBK289132],85.9
21,Cc1ccc(Cl)c(N2CCN(CCCn3c(=S)[nH]c4ccccc4c3=O)CC2)c1 [CBK268011],90
22,O=C(CCN1CCN(CCO)CC1)Nc1cccc(Br)c1 [CBK058502],102

row,SMILES,"viability at 28.5 h, 10 µM [%]"
1,COc1cc(F)ccc1-c1ccnc2[nH]c(=O)ccc12 [CBK073727],74.2
2,O=C(O)c1ccc(NS(=O)(=O)c2ccc3c(c2)OCCO3)cc1 [CBK296129],108
3,Cc1c(NC(=O)CCCC(=O)O)cccc1C(=O)O [CBK265525],95
4,O=C(Nc1cccc(C(=O)O)c1)Nc1cccc(-c2ccccc2)c1 [CBK155451G],93.5
5,O=C(Oc1cccc(NC(=O)c2ccco2)c1)c1cccc(S(=O)(=O)N2CCOCC2)c1 [CBK262272],97.2
6,CC1CCc2c(sc3ncn(C4CCNCC4)c(=O)c23)C1 (stereo not drawn) [CBK282349],91.4
7,CCN(CC(=O)NC(C)C)Cc1csc(-c2ccc(F)cc2)n1 [CBK305849],117
8,Cn1ccnc1CNc1nc(C(C)(C)C)nc2c1cnn2C [CBK306894],100
9,O=S(=O)(Nc1nnc(C(F)(F)F)s1)c1ccc(F)cc1 [CBK026663],91.4
10,COc1ccc(F)cc1-c1ccccc1CC1(C(=O)NCc2cccs2)CCOCC1 [CBK286416],93.7
11,Cc1ccc(S(=O)(=O)Cc2ccc(C(=O)NCc3ccco3)cc2)cc1 [CBK268630],105
12,Cc1cc(C)cc(Nc2cc(C)n3c(=O)[nH]nc3n2)c1 [CBK288380],91.8
13,CC(=O)Nc1ccc(S(=O)(=O)/N=C(/Nc2nc(C)cc(C)n2)Nc2ccccc2C)cc1 [CBK264101],95.9
14,COc1cccc(CN2CCN(C(=O)c3cc(C)[nH]c3C)[C@@H](C)C2)c1 [CBK284255],99.1
15,CCCN(Cc1cccs1)C1Cc2cc(OC)c(OC)cc2C1 [CBK017567C],96.8
16,O=C(CSc1nc2ccccc2o1)N1c2ccccc2Sc2ccc(C(F)(F)F)cc21 [CBK018044],91.1
17,Cc1cc(NS(=O)(=O)N2CCOCC2)no1 [CBK269894],89.9
18,Cc1ccccc1OC(C)C(=O)Nc1ccc(S(=O)(=O)N2CCCC2)cc1 (stereo not drawn) [CBK269367],89.7
19,COc1ccc(C)cc1S(=O)(=O)n1ccc2c(CNC3CCN(C)CC3)cccc21 [CBK113308T],90.6
20,COc1ccccc1NC(=O)NC(=O)C1CCN(C(C)=O)CC1 [CBK034853],119
21,Nc1ncc(-c2cccc([N+](=O)[O-])c2)nc1-c1ccc(O)cc1 [CBK122507],101
